# Data: ChEMBL document CHEMBL4665709, “Rational Avoidance of Protease Cleavage Sites and Symmetrical End-Tagging Significantly Enhances the Stability and Therapeutic Potential of Antimicrobial Peptides” (J Med Chem, 2020)
# Where a SMILES comes first, the peptide text is derived from it.
# Assays:
# Staphylococcus aureus [1] = test: Antibacterial activity against Staphylococcus aureus ATCC 29213 after 18 to 24 hrs in presence of 6 uM NH4+ by CLSI-based broth microdilution method; format: functional; conditions: time hrs 18-24
# Erythrocyte = test: Hemolytic activity in human RBC assessed as hemolysis; format: ADME, cell-based
# Salmonella enterica = test: Antibacterial activity against Salmonella choleraesuis 503 after 18 to 24 hrs by CLSI-based broth microdilution method; format: functional; conditions: time hrs 18-24
# Escherichia coli [2] = test: Antibacterial activity against Escherichia coli ATCC 25922 after 18 to 24 hrs in presence of 1 mM Mg2+ by CLSI-based broth microdilution method; format: functional; conditions: time hrs 18-24
# [3] = Therapeutic index, ratio of MHC for human RBC to geometric mean of peptide MIC for Staphylococcus epidermidis ATCC 12228; format: toxicity; conditions: human red blood cells (RBC), read-out: TI
# [4] = Therapeutic index, ratio of MHC for human RBC to geometric mean of peptide MIC for Streptococcus agalactiae H92; format: toxicity; conditions: human red blood cells (RBC), read-out: TI
# Enterococcus faecalis = test: Antibacterial activity against Enterococcus faecalis ATCC 29212 after 18 to 24 hrs by CLSI-based broth microdilution method; format: functional; conditions: time hrs 18-24
# [5] = Hemolytic activity in human RBC assessed as hemolysis at 1 to 128 uM relative to control; format: ADME, cell-based, Erythrocyte; conditions: human red blood cells (RBC), dose 1-128 µM, read-out: Activity
# [6] = Therapeutic index, ratio of MHC for human RBC to geometric mean of peptide MIC for methicillin-resistant Staphylococcus aureus 43300; format: toxicity; conditions: human red blood cells (RBC), read-out: TI
# Streptococcus agalactiae = test: Antibacterial activity against Streptococcus agalactiae H92 after 18 to 24 hrs by CLSI-based broth microdilution method; format: functional; conditions: time hrs 18-24
# Staphylococcus aureus [7] = test: Antibacterial activity against Staphylococcus aureus ATCC 29213 after 18 to 24 hrs in presence of 100% human serum by CLSI-based broth microdilution method; format: functional; conditions: time hrs 18-24
# [8] = Therapeutic index, ratio of MHC for human RBC to geometric mean of peptide MIC for Salmonella typhimurium 7731; format: toxicity; conditions: human red blood cells (RBC), read-out: TI
# Escherichia coli [9] = test: Antibacterial activity against Escherichia coli ATCC 25922 after 18 to 24 hrs in presence of 50% human serum by CLSI-based broth microdilution method; format: functional; conditions: time hrs 18-24
# [10] = Therapeutic index, ratio of MHC for human RBC to geometric mean of peptide MIC for Salmonella pullorum 7913; format: toxicity; conditions: human red blood cells (RBC), read-out: TI
# Staphylococcus aureus [11] = test: Antibacterial activity against Staphylococcus aureus ATCC 29213 after 18 to 24 hrs in presence of 6 uM Fe3+ by CLSI-based broth microdilution method; format: functional; conditions: time hrs 18-24
# [12] = Therapeutic index, ratio of MHC for human RBC to geometric mean of peptide MIC for Salmonella choleraesuis 503; format: toxicity; conditions: human red blood cells (RBC), read-out: TI
# Escherichia coli [13] = test: Antibacterial activity against Escherichia coli ATCC 25922 after 18 to 24 hrs in presence of 100% human serum by CLSI-based broth microdilution method; format: functional; conditions: time hrs 18-24
# Staphylococcus aureus [14] = test: Antibacterial activity against Staphylococcus aureus ATCC 29213 after 18 to 24 hrs in presence of 150 mM Na+ by CLSI-based broth microdilution method; format: functional; conditions: time hrs 18-24
# [15] = Stability of compound at 100 degreeC after 30 to 90 mins; format: physicochemical; conditions: time 30-90 min
# Staphylococcus aureus [16] = test: Antibacterial activity against Staphylococcus aureus ATCC 29213 after 18 to 24 hrs in presence of 1 mM Mg2+ by CLSI-based broth microdilution method; format: functional; conditions: time hrs 18-24
# Escherichia coli [17] = test: Antibacterial activity against Escherichia coli ATCC 25922 after 18 to 24 hrs in presence of 6 uM NH4+ by CLSI-based broth microdilution method; format: functional; conditions: time hrs 18-24
# Escherichia coli [18] = test: Antibacterial activity against Escherichia coli UB1005 after 18 to 24 hrs by CLSI-based broth microdilution method; format: functional; conditions: time hrs 18-24
# [19] = Cytotoxicity against HEK-293T cells assessed as cell viability at 128 uM by MTT assay relative to control; format: cell-based; conditions: human, read-out: Activity
# [20] = Therapeutic index, ratio of MHC for human RBC to geometric mean of peptide MIC for Escherichia coli UB1005; format: toxicity; conditions: human red blood cells (RBC), read-out: TI
# [21] = Therapeutic index, ratio of MHC for human RBC to geometric mean of peptide MIC for Escherichia coli ATCC 25922; format: toxicity; conditions: human red blood cells (RBC), read-out: TI
# Staphylococcus aureus [22] = test: Antibacterial activity against methicillin-resistant Staphylococcus aureus 43300 after 18 to 24 hrs by CLSI-based broth microdilution method; format: functional; conditions: time hrs 18-24
# Salmonella typhimurium [23] = test: Antibacterial activity against Salmonella typhimurium 14028 after 18 to 24 hrs by CLSI-based broth microdilution method; format: functional, Salmonella enterica subsp. enterica serovar Typhimurium; conditions: Salmonella enterica, time hrs 18-24
# Staphylococcus aureus [24] = test: Antibacterial activity against Staphylococcus aureus ATCC 29213 after 18 to 24 hrs in presence of 25% human serum by CLSI-based broth microdilution method; format: functional; conditions: time hrs 18-24
# Staphylococcus aureus [25] = test: Antibacterial activity against Staphylococcus aureus 11011 after 18 to 24 hrs by CLSI-based broth microdilution method; format: functional; conditions: time hrs 18-24
# [26] = Therapeutic index, ratio of MHC for human RBC to geometric mean of peptide MIC for Staphylococcus aureus ATCC 29213; format: toxicity; conditions: human red blood cells (RBC), read-out: TI
# [27] = Therapeutic index, ratio of MHC for human RBC to geometric mean of peptide MIC for Salmonella typhimurium 14028; format: toxicity; conditions: human red blood cells (RBC), read-out: TI
# [28] = Therapeutic index, ratio of MHC for human RBC to geometric mean of peptide MIC for Staphylococcus aureus 11011; format: toxicity; conditions: human red blood cells (RBC), read-out: TI
# Salmonella typhimurium [29] = test: Antibacterial activity against Salmonella typhimurium 7731 after 18 to 24 hrs by CLSI-based broth microdilution method; format: functional, Salmonella enterica subsp. enterica serovar Typhimurium; conditions: Salmonella enterica, time hrs 18-24
# Escherichia coli [30] = test: Antibacterial activity against Escherichia coli ATCC 25922 after 18 to 24 hrs in presence of 8 uM Zn2+ by CLSI-based broth microdilution method; format: functional; conditions: time hrs 18-24
# Staphylococcus aureus [31] = test: Antibacterial activity against Staphylococcus aureus ATCC 29213 after 18 to 24 hrs by CLSI-based broth microdilution method; format: functional; conditions: time hrs 18-24
# Staphylococcus aureus [32] = test: Antibacterial activity against Staphylococcus aureus ATCC 29213 after 18 to 24 hrs in presence of 4.5 mM K+ by CLSI-based broth microdilution method; format: functional; conditions: time hrs 18-24
# Staphylococcus aureus [33] = test: Antibacterial activity against Staphylococcus aureus ATCC 29213 after 18 to 24 hrs in presence of 50% human serum by CLSI-based broth microdilution method; format: functional; conditions: time hrs 18-24
# [34] = Therapeutic index, ratio of MHC for human RBC to geometric mean of peptide MIC for Enterococcus faecalis ATCC 29212; format: toxicity; conditions: human red blood cells (RBC), read-out: TI
# [35] = system: Staphylococcus epidermidis; test: Antibacterial activity against Staphylococcus epidermidis ATCC 12228 after 18 to 24 hrs by CLSI-based broth microdilution method; format: functional; conditions: time hrs 18-24
# [36] = Antibacterial activity against Salmonella pullorum 7913 after 18 to 24 hrs by CLSI-based broth microdilution method; format: functional, Salmonella enterica subsp. enterica serovar Pullorum; conditions: Salmonella enterica, time hrs 18-24
# Escherichia coli [37] = test: Antibacterial activity against Escherichia coli ATCC 25922 after 18 to 24 hrs in presence of 4.5 mM K+ by CLSI-based broth microdilution method; format: functional; conditions: time hrs 18-24
# Escherichia coli [38] = test: Antibacterial activity against Escherichia coli ATCC 25922 after 18 to 24 hrs in presence of 25% human serum by CLSI-based broth microdilution method; format: functional; conditions: time hrs 18-24
# Staphylococcus aureus [39] = test: Antibacterial activity against Staphylococcus aureus ATCC 29213 after 18 to 24 hrs in presence of 8 uM Zn2+ by CLSI-based broth microdilution method; format: functional; conditions: time hrs 18-24
# [40] = Cytotoxicity against mouse RAW264.7 cells assessed as cell viability at 128 uM by MTT assay relative to control; format: cell-based; conditions: read-out: Activity
# Escherichia coli [41] = test: Antibacterial activity against Escherichia coli ATCC 25922 after 18 to 24 hrs in presence of 6 uM Fe3+ by CLSI-based broth microdilution method; format: functional; conditions: time hrs 18-24
# Escherichia coli [42] = test: Antibacterial activity against Escherichia coli ATCC 25922 after 18 to 24 hrs in presence of 150 mM Na+ by CLSI-based broth microdilution method; format: functional; conditions: time hrs 18-24
# Escherichia coli [43] = test: Antibacterial activity against Escherichia coli ATCC 25922 after 18 to 24 hrs by CLSI-based broth microdilution method; format: functional; conditions: time hrs 18-24
compound,measurement,setting,value
CC[C@H](C)[C@H](N)C(=O)N[C@H](C(=O)N[C@@H](CS)C(=O)N[C@@H](CCCNC(=N)N)C(=O)N[C@@H](CCCCN)C(=O)N1CCC[C@H]1C(=O)N[C@H](C(=O)N[C@H](C(=O)N[C@@H](CS)C(=O)N[C@@H](CCCNC(=N)N)C(=O)N[C@@H](CCCCN)C(=O)N1CCC[C@H]1C(=O)N[C@H](C(=O)N[C@H](C(=O)N[C@@H](CS)C(=O)N[C@@H](CCCNC(=N)N)C(=O)N[C@@H](CCCCN)C(=O)N1CCC[C@H]1C(=O)N[C@H](C(=O)N[C@H](C(=O)N[C@@H](CS)C(=O)N[C@@H](CCCNC(=N)N)C(=O)N[C@@H](CCCCN)C(=O)N1CCC[C@H]1C(=O)N[C@H](C(=O)N[C@H](C(N)=O)[C@@H](C)CC)[C@@H](C)CC)[C@@H](C)CC)[C@@H](C)CC)[C@@H](C)CC)[C@@H](C)CC)[C@@H](C)CC)[C@@H](C)CC)[C@@H](C)CC (H-IICRKPIICRKPIICRKPIICRKPII-NH2),MIC,Staphylococcus aureus [1],32 µM
same,MHC,Erythrocyte,> 128 µM
same,MIC,Salmonella enterica,4 µM
same,MIC,Escherichia coli [2],8 µM
same,selectivity ratio,[3],6.35
same,selectivity ratio,[4],6.35
same,MIC,Enterococcus faecalis,32 µM
same,hemolysis at up to 128 µM,[5],< 5%
same,selectivity ratio,[6],6.35
same,MIC,Streptococcus agalactiae,16 µM
same,MIC,Staphylococcus aureus [7],64 µM
same,selectivity ratio,[8],50.8
same,MIC,Escherichia coli [9],4 µM
same,selectivity ratio,[10],50.8
same,MIC,Staphylococcus aureus [11],32 µM
same,selectivity ratio,[12],50.8
same,MIC,Escherichia coli [13],16 µM
same,MIC,Staphylococcus aureus [14],64 µM
same,Stabilty,[15],Stable
same,MIC,Staphylococcus aureus [16],64 µM
same,MIC,Escherichia coli [17],2 µM
same,MIC,Escherichia coli [18],1 µM
same,viability at 128 µM,[19],> 90%
same,selectivity ratio,[20],50.8
same,selectivity ratio,[21],50.8
same,MIC,Staphylococcus aureus [22],16 µM
same,MIC,Salmonella typhimurium [23],2 µM
same,MIC,Staphylococcus aureus [24],64 µM
same,MIC,Staphylococcus aureus [25],16 µM
same,selectivity ratio,[26],6.35
same,selectivity ratio,[27],50.8
same,selectivity ratio,[28],6.35
same,MIC,Salmonella typhimurium [29],2 µM
same,MIC,Escherichia coli [30],2 µM
same,MIC,Staphylococcus aureus [31],32 µM
same,MIC,Staphylococcus aureus [32],64 µM
same,MIC,Staphylococcus aureus [33],64 µM
same,selectivity ratio,[34],6.35
same,MIC,[35],16 µM
same,MIC,[36],8 µM
same,MIC,Escherichia coli [37],2 µM
same,MIC,Escherichia coli [38],4 µM
same,MIC,Staphylococcus aureus [39],32 µM
same,viability at 128 µM,[40],> 90%
same,MIC,Escherichia coli [41],2 µM
same,MIC,Escherichia coli [42],8 µM
same,MIC,Escherichia coli [43],2 µM
